Test results published in patent US20250092064A1, “BENZOTRIAZOLE COMPOUND” (DAIICHI SANKYO COMPANY, LIMITED, priority 2022, published 2025).

What was measured:
[1] = system: NQO1 activity in Hepa1c1c7 cells; assay: NAD(P)H: quinone oxidoreductase-1 (NQO1) enzyme induction assay (in vitro); type: cell-based, mouse; conditions: Mus musculus, Hepa-1c1c7, NQO1 activity with 400 nM test compound as a ratio from the base without compound, about 48 hr
Method: The NQO1 assay was performed based on a previous report (Methods in Enzymology 2004; 382: 243-258). Hepa1c1c7 cells (mouse hepatocyte cell line, ATCC, cat. no. CRL-2026) were cultured in D-MEM medium containing 10% FBS and 1% penicillin/streptomycin (5% CO2, 37° C.), and seeded into 96-well plates (Corning REF. 353072) at 1×10^4 cells/well. A portion of the wells were prepared with medium only for background measurement without seeding cells. The next day, 400 nM of the test compound (0.004% of the final concentration in DMSO) dissolved in DMSO was added thereto, and the wells were incubated for about 48 hr. A well without adding the test compound was prepared for base activity assay in part. […] After the medium was removed, 50 μL of the cell lysate was added and incubated at 37° C. for 10 minutes, followed by shaking at room temperature for 10 minutes. 200 μL of reaction solution was added thereto, and allowed to stand for 5 minutes at room temperature. 50 μL of the stop solution was added thereto, and absorbance was measured at 610 nm on a SpectraMax PLUS384 (Molecular devices) or […] Pharma Biomedical). The test results were analyzed in Excel, and the NQO1 activity upon addition of 400 nM of test compound was calculated as a ratio from the base without the compound. NQO1 activity ratio when test compound is added=(absorbance when test compound is added-absorbance of medium only)/(absorbance without addition of compound-absorbance of medium only) [numerical formula 2] The results of each test compound in this test are shown in the following Table 2 (A:5<NQO1 activity ratio, B:3<NQO1 activity ratio≤5).

[2] = molecular target: binding between Nrf2 and Keap1 (Homo sapiens (Human), UniProt Q14145); assay: FP assay (in vitro): inhibition of Nrf2-Keap1 binding by fluorescence polarization; conditions: GST-fused human Keap1 (325-642) 20 nM, FITC-labeled Nrf2 peptide 10 nM, 2 hr at room temperature
Chain of binding between Nrf2 and Keap1 (Q14145 325-624 limits assumed): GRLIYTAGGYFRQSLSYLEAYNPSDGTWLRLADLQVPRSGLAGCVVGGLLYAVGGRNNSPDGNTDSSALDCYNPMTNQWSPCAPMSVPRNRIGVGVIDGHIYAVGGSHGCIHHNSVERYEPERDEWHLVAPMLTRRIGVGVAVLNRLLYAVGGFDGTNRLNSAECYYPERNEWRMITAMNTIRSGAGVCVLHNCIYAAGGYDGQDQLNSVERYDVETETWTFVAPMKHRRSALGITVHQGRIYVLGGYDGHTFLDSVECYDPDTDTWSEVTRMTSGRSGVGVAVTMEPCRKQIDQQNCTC

Row | SMILES | IC50 [2] | fold induction at 0.4 µM [1]
1 | CC[C@@H]1CN(Cc2cc([C@@H](CC(=O)O)c3ccc4c(nnn4C)c3C)cc3ccsc23)C(C)c2nc(O)ccc2O1 (relative stereo) [Example 79, (3R)-3-(1,4-Dimethyl-1H-benzotriazol-5-yl)-3-(7-{[(2R,5R*)-2-ethyl-7-hydroxy-5-methyl-2,3-dihydropyrido[2,3-f][1,4]oxazepin-4(5H)-yl]methyl}-1-benzothiophen-5-yl)propanoic acid] | – | > 5
2 | CC[C@@H]1CN(Cc2cc([C@@H](CC(=O)O)c3cnc4c(nnn4C)c3C)cc3ccsc23)C(C)c2nc(O)ccc2O1 (single isomer, unassigned) [Example 81, (3R)-3-(3,7-Dimethyl-3H-[1,2,3]triazolo[4,5-b]pyridin-6-yl)-3-(7-{[(2R,5S*)-2-ethyl-7-hydroxy-5-methyl-2,3-dihydropyrido[2,3-f][1,4]oxazepin-4(5H)-yl]methyl}-1-benzothiophen-5-yl)propanoic acid] | – | 3 to 5
3 | Cc1c([C@H](CC(=O)O)c2cc(CN3C[C@@H](C4CC4)Oc4ccc(O)nc4C3C)c3sccc3c2)ccc2c1nnn2C (single isomer, unassigned) [Example 83, (3R)-3-(7-{[(2R,5S*)-2-Cyclopropyl-7-hydroxy-5-methyl-2,3-dihydropyrido[2,3-f][1,4]oxazepin-4(5H)-yl]methyl}-1-benzothiophen-5-yl)-3-(1,4-dimethyl-1H-benzotriazol-5-yl)propanoic acid] | 30 to 100 nM | > 5
4 | Cc1c([C@H](CC(=O)O)c2cc(CN3C[C@@H](C4CC4)Oc4ccc(O)nc4C3C)c3sccc3c2)ccc2c1nnn2C (single isomer, unassigned) [Example 84, (3R)-3-(7-{[(2R,5R*)-2-Cyclopropyl-7-hydroxy-5-methyl-2,3-dihydropyrido[2,3-f][1,4]oxazepin-4(5H)-yl]methyl}-1-benzothiophen-5-yl)-3-(1,4-dimethyl-1H-benzotriazol-5-yl)propanoic acid] | 30 to 100 nM | –
5 | Cc1c([C@H](CC(=O)O)c2cc(CN3CC4(CC4)Oc4ccc(O)nc4C3C)c3sccc3c2)ccc2c1nnn2C (single isomer, unassigned) [Example 87, (3R)-3-(1,4-Dimethyl-1H-benzotriazol-5-yl)-3-(7-{[(5′S*)-7′-hydroxy-5′-methyl-3′H-spiro[cyclopropane-1,2′-pyrido[2,3-f][1,4]oxazepin]-4′(5′H)-yl]methyl}-1-benzothiophen-5-yl)propanoic acid] | – | > 5
6 | CC[C@@H]1CN(Cc2cc(C(CC(=O)O)c3ccc4c(nnn4C)c3C)cc3c2CCC3)S(=O)(=O)c2ccc(Cl)cc2O1 (stereo partly drawn) [Example 15, 3-(7-{[(4R)-7-Chloro-4-ethyl-1,1-dioxido-3,4-dihydro-2H-5,1,2-benzoxathiazepin-2-yl]methyl}-2,3-dihydro-1H-inden-5-yl)-3-(1,4-dimethyl-1H-benzotriazol-5-yl)propanoic acid] | 30 to 100 nM | –
7 | Cc1c(C(CC(=O)O)c2cc3c(c(CN4CC5(CCOCC5)Oc5ncccc5S4(=O)=O)c2)CCC3)ccc2c1nnn2C (stereo not shown) [Example 33, 3-(1,4-Dimethyl-1H-benzotriazol-5-yl)-3-{7-[(1,1′-dioxido-2,3,5,6-tetrahydrospiro[pyran-4,4′-pyrido[2,3-b][1,4,5]oxathiazepine]-2′(3′H)-yl)methyl]-2,3-dihydro-1H-inden-5-yl}propanoic acid] | 30 to 100 nM | –
8 | Cc1c(C(CC(=O)O)c2cc3c(c(CN4CC5(COC5)Oc5ncccc5S4(=O)=O)c2)CCC3)ccc2c1nnn2C (stereo not shown) [Example 36, 3-(1,4-Dimethyl-1H-benzotriazol-5-yl)-3-{7-[(1,1′-dioxido-spiro[oxetane-3,4′-pyrido[2,3-b][1,4,5]oxathiazepine]-2′ (3′H)-yl)methyl]-2,3-dihydro-1H-inden-5-yl}propanoic acid] | 10 to 30 nM | –
9 | CC[C@@H]1CN(Cc2cc([C@H](CC(=O)O)c3ccc4c(nnn4C)c3C)cc3ccsc23)[C@@H](C)c2ncccc2O1 [Example 62, (3S)-3-(1,4-Dimethyl-1H-benzotriazol-5-yl)-3-(7-{[(2R,5S)-2-ethyl-5-methyl-2,3-dihydropyrido[2,3-f][1,4]oxazepin-4(5H)-yl]methyl}-1-benzothiophen-5-yl)propanoic acid] | 10 to 30 nM | –

Continued, in another order:

Row | IC50 [2] | SMILES | fold induction at 0.4 µM [1]
10 | ≤ 10 nM | CC[C@@H]1Cc2ncccc2S(=O)(=O)N(Cc2cc([C@@H](CC(=O)O)c3ccc4c(nnn4C)c3C)cc3c2CCC3)C1 (single isomer, unassigned) [Example 27, (3R)-3-(1,4-Dimethyl-1H-benzotriazol-5-yl)-3-(7-{[(4S*)-4-ethyl-1,1-dioxido-4,5-dihydropyrido[2,3-f][1,2]thiazepin-2(3H)-yl]methyl}-2,3-dihydro-1H-inden-5-yl)propanoic acid] | > 5
11 | ≤ 10 nM | CC[C@@H]1Cc2ccccc2S(=O)(=O)N(Cc2cc([C@@H](CC(=O)O)c3ccc4c(nnn4C)c3C)cc3c2CCC3)C1 (single isomer, unassigned) [Example 28, (3R)-3-(1,4-Dimethyl-1H-benzotriazol-5-yl)-3-(7-{[(4S*)-4-ethyl-1,1-dioxido-4,5-dihydro-1,2-benzothiazepin-2(3H)-yl]methyl}-2,3-dihydro-1H-inden-5-yl)propanoic acid] | > 5
12 | ≤ 10 nM | CC[C@@H]1CN(Cc2cc(C(CC(=O)O)c3cc(Cl)c4c(nnn4C)c3C)cc3c2CCC3)[C@@H](C)c2ncccc2O1 (single isomer, unassigned) [Example 71, (3R*)-3-(7-Chloro-1,4-dimethyl-1H-benzotriazol-5-yl)-3-(7-{[(2R,5S)-2-ethyl-5-methyl-2,3-dihydropyrido[2,3-f][1,4]oxazepin-4(5H)-yl]methyl}-2,3-dihydro-1H-inden-5-yl)propanoic acid] | > 5
13 | ≤ 10 nM | CC[C@@H]1CN(Cc2cc(C(CC(=O)O)c3cc(Cl)c4c(nnn4C)c3C)cc3c2CCC3)[C@@H](C)c2ncccc2O1 (single isomer, unassigned) [Example 72, (3S*)-3-(7-Chloro-1,4-dimethyl-1H-benzotriazol-5-yl)-3-(7-{[(2R,5S)-2-ethyl-5-methyl-2,3-dihydropyrido[2,3-f][1, 4]oxazepin-4(5H)-yl]methyl}-2,3-dihydro-1H-inden-5-yl)propanoic acid] | –
14 | ≤ 10 nM | CCC1c2ncccc2O[C@H](CC)CN1Cc1cc([C@H](CC(=O)O)c2ccc3c(nnn3C)c2C)cc2ccsc12 (single isomer, unassigned) [Example 76, (3S)-3-(7-{[(2R,5R*)-2,5-Diethyl-2,3-dihydropyrido[2,3-f][1,4]oxazepin-4(5H)-yl]methyl}-1-benzothiophen-5-yl)-3-(1,4-dimethyl-1H-benzotriazol-5-yl)propanoic acid] | > 5
15 | ≤ 10 nM | CCC1c2ncccc2O[C@H](CC)CN1Cc1cc([C@H](CC(=O)O)c2ccc3c(nnn3C)c2C)cc2ccsc12 (single isomer, unassigned) [Example 77, (3S)-3-(7-{[(2R,5S*)-2,5-Diethyl-2,3-dihydropyrido[2,3-f][1,4]oxazepin-4(5H)-yl]methyl}-1-benzothiophen-5-yl)-3-(1,4-dimethyl-1H-benzotriazol-5-yl)propanoic acid] | –
16 | 10 to 30 nM | CC[C@@H]1CN(Cc2cc([C@@H](CC(=O)O)c3ccc4c(nnn4C)c3C)cc3ccsc23)C(C)c2nc(O)ccc2O1 (single isomer, unassigned) [Example 78, (3R)-3-(1,4-Dimethyl-1H-benzotriazol-5-yl)-3-(7-{[(2R,5S*)-2-ethyl-7-hydroxy-5-methyl-2,3-dihydropyrido[2,3-f][1,4]oxazepin-4(5H)-yl]methyl}-1-benzothiophen-5-yl)propanoic acid] | > 5
17 | 10 to 30 nM | Cc1c([C@H](CC(=O)O)c2cc(CN3C[C@@H](C4CC4)Oc4ccc(O)nc4C3C)c3sccc3c2)cnc2c1nnn2C (single isomer, unassigned) [Example 85, (3R)-3-(7-{[(2R,5R*)-2-Cyclopropyl-7-hydroxy-5-methyl-2,3-dihydropyrido[2,3-f][1,4]oxazepin-4(5H)-yl]methyl}-1-benzothiophen-5-yl)-3-(3,7-dimethyl-3H-[1,2,3]triazolo[4,5-b]pyridin-6-yl)propanoic acid] | > 5
18 | 10 to 30 nM | Cc1c(C(CC(=O)O)c2cc3c(c(CN4CC5(CCC5)Oc5ncccc5S4(=O)=O)c2)CCC3)ccc2c1nnn2C (stereo not shown) [Example 35, 3-(1,4-Dimethyl-1H-benzotriazol-5-yl)-3-{7-[(1,1′-dioxido-spiro[cyclobutane-1,4′-pyrido[2,3-b][1,4,5]oxathiazepine]-2′(3′H)-yl)methyl]-2,3-dihydro-1H-inden-5-yl}propanoic acid] | –
